Experimental data reported in US12673052B2, “Combinations for the treatment of cancer” (Exelixis, Inc., priority 2020, dated 2026).
Where “and” joins values, the source holds several entries; their conditions need not be identical. Identical values can stand only once.

Tests used:
AXL = AXL (Homo sapiens, UniProt P30530); experiment: RTK autophosphorylation ELISA, A-172 cells stimulated with Gas6; type: cell-based; parameters: cell lines (PC-3, HUVEC, and A-172) stimulated with ligands to their respective receptors to induce autophosphorylation (MET, VEGFR2, and AXL); endogenous in cells; host or cells: A-172; details: ligand Gas6, read-out: Cellular IC50
Method: The activity of Compound 1 was evaluated in cell-based assays that assessed the mechanistic effects of the compound in tumor and normal cells. Consistent with the biochemical data, Compound 1 is a potent inhibitor of cellular RTKs as assessed by analysis of receptor autophosphorylation as measured by enzyme-linked immunosorbent assay. Assays were performed using cell lines (PC-3, HUVEC, and A-172) stimulated with ligands to their respective receptors to induce autophosphorylation (MET, VEGFR2, and AXL) or a cell line (293A) transfected with an expression vector encoding the receptor of interest (MER). Inhibition of endogenous phosphorylated MET by Compound 1 in Hs 746T gastric carcinoma cells was also investigated due to the presence of the skip-splice mutation of exon 14 in the MET gene. This MET exon 14 alteration leads to increased MET stability and oncogenic activation, including constitutive MET phosphorylation. Also this mutation is known to occur in 3% of lung adenocarcinoma patients and to be sensitive to MET-targeted therapies (Frampton et al 2015).

[1] = Hepatocyte stability assay; type: in vitro ADME, rat; details: hepatocytes
Method: The mean plasma t1/2, z values were approximately 9 hours in rats and 4 hours in dogs. Interspecies scaling based on body weight to predict PK parameters in humans could not be performed because dogs (larger species) cleared Compound 1 faster than rats (smaller species). Therefore, the human PK was projected based on one species (rat). […] This apparent clearance value (CL/F) was used to predict steady-state exposure (AUC and average plasma concentration [Cavg]) in humans for the proposed first-in-human (FIH) starting dose for Study Compound 1-001.
In the liver microsomal stability assay, CLint was 0.601 mL/min/g liver in mouse, 0.563 mL/min/g liver in rat, 0.315 mL/min/g liver in dog, 0.734 mL/min/g liver in monkey, and 0.639 mL/min/g liver in human. In the hepatocyte stability assay, Compound 1 CLint was 0.373 mL/min/g liver in mouse, 0.285 mL/min/g liver in rat, 1.08 mL/min/g liver in dog, 0.533 mL/min/g liver in monkey, and 0.317 mL/min/g liver in human.

CYP2C19 = experiment: Cytochrome P450 induction (mRNA levels) in fresh primary human hepatocytes; type: in vitro ADME
[2] = test system: primary human macrophages; experiment: Macrophage re-polarization: primary CD14+ monocytes cultured in M2 polarizing conditions; type: cell-based; details: donor (A, H, L, D, B), Donor A and B n = 1
Method: The TAM RTKs play an important role in balancing the functions of M1 and M2 macrophage subsets. Compound 1 was tested for inhibition against primary CD14+ monocytes cultured in M2 polarizing conditions. A dose dependent polarization of the monocytes to pro-inflammatory M1 macrophages across cells from all tested donors was observed (Table 4).

Sequence of AXL (P30530 26-894): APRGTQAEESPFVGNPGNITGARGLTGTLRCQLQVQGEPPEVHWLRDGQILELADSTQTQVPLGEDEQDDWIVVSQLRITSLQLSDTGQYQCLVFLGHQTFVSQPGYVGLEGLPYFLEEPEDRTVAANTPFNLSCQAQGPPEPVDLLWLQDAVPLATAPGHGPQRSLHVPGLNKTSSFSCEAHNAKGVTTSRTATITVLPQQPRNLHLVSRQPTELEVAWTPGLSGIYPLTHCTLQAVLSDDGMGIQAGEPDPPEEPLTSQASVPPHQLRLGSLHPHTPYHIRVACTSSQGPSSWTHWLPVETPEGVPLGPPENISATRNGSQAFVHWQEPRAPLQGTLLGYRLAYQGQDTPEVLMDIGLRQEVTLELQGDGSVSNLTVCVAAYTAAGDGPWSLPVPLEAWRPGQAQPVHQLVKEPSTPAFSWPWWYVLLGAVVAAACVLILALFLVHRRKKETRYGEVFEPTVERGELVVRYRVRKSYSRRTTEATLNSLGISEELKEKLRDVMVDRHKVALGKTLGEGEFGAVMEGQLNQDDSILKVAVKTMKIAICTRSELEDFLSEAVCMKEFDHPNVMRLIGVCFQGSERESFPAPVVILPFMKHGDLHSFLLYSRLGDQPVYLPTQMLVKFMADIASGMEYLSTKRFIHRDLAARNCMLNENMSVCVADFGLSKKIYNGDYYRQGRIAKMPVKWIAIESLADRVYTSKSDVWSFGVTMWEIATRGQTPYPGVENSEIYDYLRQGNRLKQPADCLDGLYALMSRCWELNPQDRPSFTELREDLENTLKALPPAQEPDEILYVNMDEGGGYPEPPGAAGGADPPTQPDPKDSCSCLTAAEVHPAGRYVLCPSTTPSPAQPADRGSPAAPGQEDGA

Q: Which results are given for `CNC(=O)c1cc2c(Oc3ccc(NC(=O)C4(C(=O)Nc5ccc(F)cc5)CC4)cc3)ccnc2cc1OC` [Compound 1, 1-N′-(4-Fluorophenvl)-1-N-[4-[7-methoxy-6-(methylcarbamovl)quinolin-4-yl]oxyphenyl]cyclopropane-1,1-dicarboxamide]?
A: IC50 (AXL): 0.0034 µM; CLint [1]: 0.285 mL/min/g liver; EC50 (CYP2C19; human, fresh primary human hepatocytes, mRNA induction, read-out: half-maximal effective concentration (EC50)): 6.21 µM; maximal induction effect (Emax) (CYP2C19; mRNA, 0.1-100 μM): 6 fold; M1/M2 Ratio, Fold Change Relative to DMSO (n = 2) ([2]; 2 uM): 1.3 ± 2.6 and 1.7 (2×) and 1.0 ± 2.6 and 2.2 ± 1.1; M1/M2 Ratio, Fold Change Relative to DMSO (n = 2) ([2]; 4 uM): 3.6 ± 1.2 and 4.1 and 3.3 and 3.7 ± 1.2 and 3.4 ± 1.4; M1/M2 Ratio, Fold Change Relative to DMSO (n = 2) ([2]; 6 uM): 3.5 ± 1.2 and 4.0 and 4.6 and 4.5 ± 1.0 and 4.6 ± 1.7
